From publication PMC8921975 (Journal of the American Chemical Society, 2020)
“Also recorded” adds a separate entry of the source. Positions of bridges follow the written chain, without caps; N, C: chain ends. Non-standard residues stand in square brackets, D forms with d. No end group written: not given here. pGlu = O=C1CC[C@@H](C(=O)O)N1

Columns and labels:
[1] = biological target: full-length TDP1 (Homo sapiens, UniProt Q9NUW8); assay: Steady-state; type: biochemical
[2] = tested on: TDP1; assay: TDP1 inhibitory activity of Axinella-derived peptides; type: biochemical; conditions: Figure S2
[3] = tested on: N-terminal truncated form of TDP1 (Δ147TDP1); type: biochemical, human; conditions: N-terminally truncated TDP1 lacking regulatory domain (Δ1–147); FRET assay, PBS pH 7.4, 80 mM KCl, 1 mM TCEP
[4] = full-length TDP1 0.5 nM, 0.01–3 μM FRET substrate, recifin A 0, 0.2, 0.5, 1, 2 μM, PBS pH 7.4, 80 mM KCl, 1 mM TCEP, quadruplicate, 1 h
[5] = full-length TDP1, Figure S10 (Km and Vmax ratios)

full-length TDP1, sequence (Q9NUW8 whole entry): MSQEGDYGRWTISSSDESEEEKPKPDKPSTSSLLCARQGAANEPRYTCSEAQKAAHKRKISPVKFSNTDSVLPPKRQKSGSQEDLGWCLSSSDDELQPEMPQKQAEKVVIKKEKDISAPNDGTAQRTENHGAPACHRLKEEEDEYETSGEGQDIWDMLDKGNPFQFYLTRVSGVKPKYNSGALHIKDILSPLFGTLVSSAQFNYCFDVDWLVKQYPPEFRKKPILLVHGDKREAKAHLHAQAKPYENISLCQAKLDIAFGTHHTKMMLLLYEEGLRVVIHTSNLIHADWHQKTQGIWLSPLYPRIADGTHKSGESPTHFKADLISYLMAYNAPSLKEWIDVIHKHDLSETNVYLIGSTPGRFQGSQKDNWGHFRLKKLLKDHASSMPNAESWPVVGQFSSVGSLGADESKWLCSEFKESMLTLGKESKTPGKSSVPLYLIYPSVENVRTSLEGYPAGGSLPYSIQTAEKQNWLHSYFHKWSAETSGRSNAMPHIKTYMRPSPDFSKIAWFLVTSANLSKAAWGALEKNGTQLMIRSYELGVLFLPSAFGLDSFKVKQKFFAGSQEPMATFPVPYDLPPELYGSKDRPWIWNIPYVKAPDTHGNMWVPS

[pGlu]EAFCYSDRFCQNYIGSIPDCCFGRGSYSFELQPPPWECYQC (disulfide 5-21, 11-39, 22-42) [recifin A]
Km for the substrate, effect of recifin A (in words) [1, 4]: increased the Km for the substrate
Vmax, effect of recifin A (in words) [1, 4]: modest increase of the observed Vmax value; also recorded: increased the Vmax of the enzyme
recifin A-dependent increase in the Km for the substrate [1, 5]: approximately 6 fold
recifin A-dependent increase of observed Vmax [1, 5]: approximately 1.6 fold
TDP1 inhibitory activity relative to the other Axinella peptides [2]: most active peptide
inhibition of Δ147TDP1 enzymatic activity (in words) [3]: not affecting the activity of a truncated catalytic domain of TDP1; also recorded: only a minimal effect; also recorded: inhibited full-length TDP1 but not N-terminally truncated TDP1 (Δ147TDP1); also recorded: does not affect the enzymatic activity of truncated TDP1; also recorded: unaffected by recifin A
